According to article PMC4505863 (ACS Chemical Neuroscience, 2014):
Like-named read-outs stand apart in the source and are kept apart here.

Experiments:
[1] = molecular target: 5-HT2B (Homo sapiens, UniProt P41595); test: PDSP screening affinity 5-HT2B; format: binding
[2] = molecular target: h5-HT2A (Homo sapiens, UniProt P28223); test: Ca2+ mobilization assay; format: cell-based
[3] = molecular target: T1, 5-HT3 (Homo sapiens, UniProt P46098); test: PDSP screening affinity 5-HT3; format: binding
T1 sequence (P46098 24-478): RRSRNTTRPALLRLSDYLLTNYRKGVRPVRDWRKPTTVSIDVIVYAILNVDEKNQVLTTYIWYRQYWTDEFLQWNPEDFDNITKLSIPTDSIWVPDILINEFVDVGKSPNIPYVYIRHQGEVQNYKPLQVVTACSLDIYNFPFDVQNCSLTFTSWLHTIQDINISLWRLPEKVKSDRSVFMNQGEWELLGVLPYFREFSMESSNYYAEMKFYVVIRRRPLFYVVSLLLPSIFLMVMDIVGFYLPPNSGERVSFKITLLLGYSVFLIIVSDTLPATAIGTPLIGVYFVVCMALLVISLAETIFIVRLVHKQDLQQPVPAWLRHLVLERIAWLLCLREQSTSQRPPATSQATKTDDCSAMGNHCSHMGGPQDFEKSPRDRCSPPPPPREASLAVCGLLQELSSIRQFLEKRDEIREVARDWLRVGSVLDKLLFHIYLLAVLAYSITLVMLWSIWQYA

[4] = molecular target: T2, human 5-HT2C receptor (Homo sapiens, UniProt P28335); test: h5-HT2C affinity, agonist radioligand [125I]DOI; format: binding
T2 sequence (P28335 33-458): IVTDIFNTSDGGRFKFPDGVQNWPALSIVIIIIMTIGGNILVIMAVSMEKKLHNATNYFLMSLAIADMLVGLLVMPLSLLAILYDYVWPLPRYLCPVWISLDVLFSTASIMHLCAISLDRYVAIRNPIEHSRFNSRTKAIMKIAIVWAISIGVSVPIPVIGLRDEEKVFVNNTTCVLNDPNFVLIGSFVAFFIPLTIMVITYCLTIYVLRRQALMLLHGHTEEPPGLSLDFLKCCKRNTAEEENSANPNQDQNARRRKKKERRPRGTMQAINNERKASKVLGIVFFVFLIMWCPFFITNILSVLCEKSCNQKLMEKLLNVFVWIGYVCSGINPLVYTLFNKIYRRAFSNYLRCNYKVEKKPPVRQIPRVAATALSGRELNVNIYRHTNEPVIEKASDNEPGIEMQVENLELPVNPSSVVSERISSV

[5] = test system: Male C57BL/6J mice; test: Mouse head twitch response; conditions: for max counts: HTR counts
[6] = molecular target: 5-HT1B (Homo sapiens, UniProt P28222); test: PDSP screening affinity 5-HT1B; format: binding
Chain of 5-HT1B (P28222 whole entry): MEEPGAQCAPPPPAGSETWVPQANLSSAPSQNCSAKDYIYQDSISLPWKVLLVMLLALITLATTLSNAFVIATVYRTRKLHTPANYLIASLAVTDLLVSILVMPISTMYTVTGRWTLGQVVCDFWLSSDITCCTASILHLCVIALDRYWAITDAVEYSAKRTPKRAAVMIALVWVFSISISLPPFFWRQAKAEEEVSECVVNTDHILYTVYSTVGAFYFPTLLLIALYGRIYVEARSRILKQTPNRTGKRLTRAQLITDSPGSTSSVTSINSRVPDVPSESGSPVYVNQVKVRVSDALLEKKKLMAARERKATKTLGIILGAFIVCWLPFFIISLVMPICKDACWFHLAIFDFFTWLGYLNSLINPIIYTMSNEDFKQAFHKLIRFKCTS

[7] = molecular target: 5-HT7 (Homo sapiens, UniProt P34969); test: PDSP screening affinity 5-HT7; format: binding
Chain of 5-HT7 (P34969 whole entry): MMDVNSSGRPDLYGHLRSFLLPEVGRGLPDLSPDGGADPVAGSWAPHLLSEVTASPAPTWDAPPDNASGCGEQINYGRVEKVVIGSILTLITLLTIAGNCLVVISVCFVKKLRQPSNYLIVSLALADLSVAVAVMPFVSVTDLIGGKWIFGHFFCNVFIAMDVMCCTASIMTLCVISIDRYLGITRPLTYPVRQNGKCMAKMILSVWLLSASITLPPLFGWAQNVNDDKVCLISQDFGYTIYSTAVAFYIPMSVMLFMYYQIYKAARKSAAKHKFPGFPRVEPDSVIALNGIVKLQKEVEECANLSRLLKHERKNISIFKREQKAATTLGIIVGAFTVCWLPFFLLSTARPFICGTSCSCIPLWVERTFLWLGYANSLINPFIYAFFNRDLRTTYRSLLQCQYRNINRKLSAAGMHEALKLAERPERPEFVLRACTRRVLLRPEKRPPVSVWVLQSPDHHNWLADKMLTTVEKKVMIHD

[8] = molecular target: r5-HT2A (Rattus norvegicus, UniProt P14842); test: Ca2+ mobilization assay; format: cell-based
Chain of r5-HT2A (P14842 whole entry): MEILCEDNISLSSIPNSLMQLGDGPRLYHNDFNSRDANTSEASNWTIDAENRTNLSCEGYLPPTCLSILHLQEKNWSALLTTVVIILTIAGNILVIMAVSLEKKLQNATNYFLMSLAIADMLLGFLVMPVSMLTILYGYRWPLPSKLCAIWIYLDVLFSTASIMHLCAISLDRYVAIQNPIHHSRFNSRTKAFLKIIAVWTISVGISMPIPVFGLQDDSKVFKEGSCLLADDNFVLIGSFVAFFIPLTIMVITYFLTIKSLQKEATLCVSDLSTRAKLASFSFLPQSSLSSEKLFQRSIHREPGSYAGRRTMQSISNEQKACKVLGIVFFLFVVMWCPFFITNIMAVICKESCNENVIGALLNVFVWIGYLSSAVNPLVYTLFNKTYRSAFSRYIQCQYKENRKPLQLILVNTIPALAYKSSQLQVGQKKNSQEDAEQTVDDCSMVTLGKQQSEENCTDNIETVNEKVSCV

[9] = molecular target: T3, 5-HT1A (Homo sapiens, UniProt P08908); test: PDSP screening affinity 5-HT1A; format: binding
T3 sequence (P08908 1-422): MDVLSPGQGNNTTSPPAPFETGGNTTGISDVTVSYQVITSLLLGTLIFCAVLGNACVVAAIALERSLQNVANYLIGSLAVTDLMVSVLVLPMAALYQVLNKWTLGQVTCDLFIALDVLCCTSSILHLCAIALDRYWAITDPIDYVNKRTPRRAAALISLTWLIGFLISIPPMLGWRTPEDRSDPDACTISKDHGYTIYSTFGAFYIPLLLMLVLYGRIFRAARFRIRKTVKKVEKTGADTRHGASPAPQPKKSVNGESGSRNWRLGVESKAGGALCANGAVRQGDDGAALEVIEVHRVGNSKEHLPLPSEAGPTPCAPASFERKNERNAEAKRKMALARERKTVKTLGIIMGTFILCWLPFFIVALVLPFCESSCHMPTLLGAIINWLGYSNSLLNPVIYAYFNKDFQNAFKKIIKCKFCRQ

[10] = molecular target: T4, 5-HT2A receptor (Homo sapiens, UniProt P28223); test: h5-HT2A affinity, antagonist radioligand [3H]ketanserin; format: binding
T4 sequence (P28223 whole entry): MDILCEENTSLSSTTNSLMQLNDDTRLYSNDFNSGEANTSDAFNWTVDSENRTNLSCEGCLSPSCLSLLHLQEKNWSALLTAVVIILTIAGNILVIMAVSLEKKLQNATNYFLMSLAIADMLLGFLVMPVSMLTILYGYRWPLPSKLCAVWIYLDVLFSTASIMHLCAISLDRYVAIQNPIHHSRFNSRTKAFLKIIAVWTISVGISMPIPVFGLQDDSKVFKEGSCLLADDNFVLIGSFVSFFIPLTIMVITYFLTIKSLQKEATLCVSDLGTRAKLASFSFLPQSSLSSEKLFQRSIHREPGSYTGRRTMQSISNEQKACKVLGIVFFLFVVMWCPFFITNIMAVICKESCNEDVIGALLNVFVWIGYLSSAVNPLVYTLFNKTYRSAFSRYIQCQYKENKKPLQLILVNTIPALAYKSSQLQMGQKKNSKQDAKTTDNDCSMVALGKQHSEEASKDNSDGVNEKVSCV

[11] = molecular target: T5, h5-HT2C (Homo sapiens, UniProt P28335); test: Ca2+ mobilization assay; format: cell-based
T5 sequence (P28335 33-458): T2 sequence (P28335 33-458)

[12] = molecular target: 5-HT1D (Homo sapiens, UniProt P28221); test: PDSP screening affinity 5-HT1D; format: binding
Chain of 5-HT1D (P28221 whole entry): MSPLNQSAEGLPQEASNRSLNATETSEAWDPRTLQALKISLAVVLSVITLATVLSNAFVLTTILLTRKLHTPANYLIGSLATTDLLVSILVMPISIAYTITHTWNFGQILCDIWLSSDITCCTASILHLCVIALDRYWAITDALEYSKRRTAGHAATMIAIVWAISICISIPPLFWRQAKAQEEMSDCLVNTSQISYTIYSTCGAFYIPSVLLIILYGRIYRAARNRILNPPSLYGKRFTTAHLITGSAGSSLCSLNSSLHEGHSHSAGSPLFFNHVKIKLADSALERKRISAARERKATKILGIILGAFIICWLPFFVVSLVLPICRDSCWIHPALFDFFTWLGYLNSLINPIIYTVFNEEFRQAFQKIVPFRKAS

[13] = molecular target: T2, human 5-HT2C receptor; test: h5-HT2C affinity, antagonist radioligand [3H]mesulergine; format: binding
[14] = molecular target: 5-ht1e (Homo sapiens, UniProt P28566); test: PDSP screening affinity 5-ht1e; format: binding
Chain of 5-ht1e (P28566 whole entry): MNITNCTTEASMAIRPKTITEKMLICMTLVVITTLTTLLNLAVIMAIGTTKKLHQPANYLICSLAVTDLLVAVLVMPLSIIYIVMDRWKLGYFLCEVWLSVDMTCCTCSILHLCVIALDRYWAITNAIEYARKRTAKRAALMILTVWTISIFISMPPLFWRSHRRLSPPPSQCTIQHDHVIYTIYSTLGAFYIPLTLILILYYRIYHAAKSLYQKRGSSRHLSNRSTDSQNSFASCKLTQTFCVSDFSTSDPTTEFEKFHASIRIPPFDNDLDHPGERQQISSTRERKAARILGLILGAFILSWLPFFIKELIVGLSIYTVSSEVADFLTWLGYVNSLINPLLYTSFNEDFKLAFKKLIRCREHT

[15] = molecular target: T4, 5-HT2A receptor; test: h5-HT2A affinity, agonist radioligand [125I]DOI; format: binding
[16] = molecular target: T6, r5-HT2C (Rattus norvegicus, UniProt P08909); test: Ca2+ mobilization assay; format: cell-based
T6 sequence (P08909 33-460): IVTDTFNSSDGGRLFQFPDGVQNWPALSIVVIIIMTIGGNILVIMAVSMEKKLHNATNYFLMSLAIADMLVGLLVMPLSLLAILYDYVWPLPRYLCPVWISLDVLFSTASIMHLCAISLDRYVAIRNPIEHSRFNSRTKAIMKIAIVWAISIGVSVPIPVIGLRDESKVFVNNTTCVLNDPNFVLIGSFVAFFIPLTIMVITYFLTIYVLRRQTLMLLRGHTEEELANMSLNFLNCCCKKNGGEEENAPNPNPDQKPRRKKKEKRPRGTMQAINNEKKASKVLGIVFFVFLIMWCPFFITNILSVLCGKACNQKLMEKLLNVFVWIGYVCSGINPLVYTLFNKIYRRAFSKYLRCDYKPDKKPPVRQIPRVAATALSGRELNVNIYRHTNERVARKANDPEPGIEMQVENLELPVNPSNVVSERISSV

[17] = molecular target: 5-ht5a (Homo sapiens, UniProt P47898); test: PDSP screening affinity 5-ht5a; format: binding
Chain of 5-ht5a (P47898 whole entry): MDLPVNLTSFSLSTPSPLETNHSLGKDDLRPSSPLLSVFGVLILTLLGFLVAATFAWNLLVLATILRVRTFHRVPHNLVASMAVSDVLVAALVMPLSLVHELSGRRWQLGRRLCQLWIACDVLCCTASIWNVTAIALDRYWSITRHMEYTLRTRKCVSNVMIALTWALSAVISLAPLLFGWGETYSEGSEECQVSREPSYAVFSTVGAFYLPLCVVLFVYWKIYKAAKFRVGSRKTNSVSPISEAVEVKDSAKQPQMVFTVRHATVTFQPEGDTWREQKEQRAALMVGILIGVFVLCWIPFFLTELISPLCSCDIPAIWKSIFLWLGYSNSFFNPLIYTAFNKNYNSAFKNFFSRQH

[18] = molecular target: h5-HT2B (Homo sapiens, UniProt P41595); test: Ca2+ mobilization assay; format: cell-based
Chain of h5-HT2B (P41595 whole entry): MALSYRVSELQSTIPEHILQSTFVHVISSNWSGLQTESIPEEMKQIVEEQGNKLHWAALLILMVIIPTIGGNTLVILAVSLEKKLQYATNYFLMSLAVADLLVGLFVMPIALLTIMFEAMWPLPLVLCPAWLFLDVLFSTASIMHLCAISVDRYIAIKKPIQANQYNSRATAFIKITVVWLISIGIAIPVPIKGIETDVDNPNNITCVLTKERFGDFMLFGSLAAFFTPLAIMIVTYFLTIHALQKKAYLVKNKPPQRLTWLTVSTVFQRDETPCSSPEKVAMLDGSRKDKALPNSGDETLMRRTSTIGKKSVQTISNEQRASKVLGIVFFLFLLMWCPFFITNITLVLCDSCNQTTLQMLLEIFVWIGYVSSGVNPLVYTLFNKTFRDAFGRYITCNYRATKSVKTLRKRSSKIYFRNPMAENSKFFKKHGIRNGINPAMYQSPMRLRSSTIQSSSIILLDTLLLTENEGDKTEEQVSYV

[19] = molecular target: 5-HT6 (Homo sapiens, UniProt P50406); test: PDSP screening affinity 5-HT6; format: binding
Chain of 5-HT6 (P50406 whole entry): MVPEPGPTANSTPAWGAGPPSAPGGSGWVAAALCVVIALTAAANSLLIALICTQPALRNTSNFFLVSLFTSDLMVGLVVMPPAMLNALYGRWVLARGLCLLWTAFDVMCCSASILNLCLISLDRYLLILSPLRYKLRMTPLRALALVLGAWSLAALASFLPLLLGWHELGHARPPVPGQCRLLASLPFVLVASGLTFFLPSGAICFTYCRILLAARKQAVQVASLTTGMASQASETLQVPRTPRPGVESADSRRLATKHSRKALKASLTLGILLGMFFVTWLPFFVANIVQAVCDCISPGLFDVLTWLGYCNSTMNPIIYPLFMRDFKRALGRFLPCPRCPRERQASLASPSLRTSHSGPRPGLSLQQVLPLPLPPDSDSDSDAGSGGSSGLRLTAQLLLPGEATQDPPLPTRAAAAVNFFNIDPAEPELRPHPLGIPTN

[20] = percentage of the maximum response to 5-HT
[21] = [125I]DOI, n = 3–5 displacement curves

Chain of 5-HT2B (P41595 whole entry): as the sequence (P41595 whole entry) above
Chain of h5-HT2A (P28223 whole entry): as the sequence (P28223 whole entry) above

COc1ccc2[nH]cc(CCNCc3cccc(C)c3)c2c1 [Compound 5j, N-(3-Methylbenzyl)-2-(5-methoxy-1H-indol-3-yl)ethan-1-amine]
5-HT2B pKi ± SEM [1]: 8.71 ± 0.03 | Ki ([1]; read-out: 5-HT2B affinity): 1.9 nM | h5-HT2A pEC50 ± SEM ([2]; Ca2+ mobilization): 8.2 ± 0.04 | selectivity in function h5-HT2A vs h5-HT2C ([2]; Ca2+ mobilization): 44 fold | h5-HT2A Emax [2, 20]: 73.3 ± 1.0% | EC50 ([2]; read-out: h5-HT2A EC50, Ca2+ mobilization): 6.5 nM | Ki ([3]; read-out: 5-HT3 affinity, PDSP screening, human): > 10000 nM | h5-HT2C pKi ± SEM [4, 21]: 8.47 ± 0.08 | Ki ([4]; read-out: h5-HT2C Ki, [125I]DOI): 3.39 nM | max counts ([5]; SC): 14.6 | active doses ([5]; SC, mouse head twitch): 10 mg/kg | magnitude of peak effect × vehicle ([5]; SC, mouse head twitch): 3.5 × vehicle | maximally effective dose ([5]; SC, mouse head twitch): 10 mg/kg | HTR at 30 mg/kg ([5]; biphasic bell-shaped dose–response, 30 mg/kg SC): inactive | 5-HT1B pKi ± SEM [6]: 5.37 ± 0.07 | Ki ([6]; read-out: 5-HT1B affinity): 4240 nM | 5-HT7 pKi ± SEM [7]: 6.67 ± 0.05 | Ki ([7]; read-out: 5-HT7 affinity): 212 nM | r5-HT2A pEC50 ± SEM ([8]; Ca2+ mobilization): 7.6 ± 0.04 | r5-HT2A Emax [8, 20]: 56.2 ± 0.9% | EC50 ([8]; read-out: r5-HT2A EC50, Ca2+ mobilization): 26 nM | 5-HT1A pKi ± SEM [9]: 6.57 ± 0.04 | Ki ([9]; read-out: 5-HT1A affinity): 271 nM | h5-HT2A pKi ± SEM ([10]; [3H]ketanserin, n = 3–5 displacement curves): 8.32 ± 0.17 | Ki ([10]; read-out: h5-HT2A Ki, [3H]ketanserin): 4.79 nM | h5HT2C pEC50 ± SEM ([11]; Ca2+ mobilization): 6.54 ± 0.10 | h5HT2C Emax [11, 20]: 75 ± 4% | EC50 ([11]; read-out: h5HT2C EC50, Ca2+ mobilization): 289 nM | 5-HT1D pKi ± SEM ([12]; PDSP screening, human): 6.55 ± 0.06 | Ki ([12]; read-out: 5-HT1D affinity, PDSP screening, human): 283 nM | h5-HT2C pKi ± SEM ([13]; [3H]mesulergine, n = 3–5 displacement curves): 7.65 ± 0.03 | Ki ([13]; read-out: h5-HT2C Ki, [3H]mesulergine): 22.4 nM | 5-ht1e pKi ± SEM ([14]; PDSP screening, human): 5.41 ± 0.05 | Ki ([14]; read-out: 5-ht1e affinity, PDSP screening, human): 3880 nM | h5-HT2A pKi ± SEM [15, 21]: 8.93 ± 0.11 | selectivity h5-HT2A versus h5-HT2C, affinity at the [125I]-DOI-labeled receptors ([15]; agonist-labeled receptors): < 3 fold | Ki ([15]; read-out: h5-HT2A Ki, [125I]DOI): 1.17 nM | r5-HT2C pEC50 ± SEM ([16]; Ca2+ mobilization): 6.72 ± 0.04 | r5-HT2C Emax [16, 20]: 104 ± 2% | EC50 ([16]; read-out: r5-HT2C EC50, Ca2+ mobilization): 192 nM | 5-ht5a pKi ± SEM [17]: 5.41 ± 0.06 | Ki ([17]; read-out: 5-ht5a affinity): 3850 nM | h5-HT2B pEC50 ± SEM ([18]; Ca2+ mobilization, NA = not active, Emax ≤ 15%): NA ^b (NA, not active; Emax ≤ 15%) | 5-HT6 pKi ± SEM [19]: 7.21 ± 0.03 | Ki ([19]; read-out: 5-HT6 affinity): 62 nM

COc1cccc(CNCCc2cc(OC)c(I)cc2OC)c1 [Compound 4a, N-(3-Methoxybenzyl)-2-(4-iodo-2,5-dimethoxyphenyl)ethan-1-amine]
Ki ([1]; 5-HT2B affinity): 4.6 nM | EC50 [2]: 28 nM | Emax ([2]; HEK293, read-out: h5-HT2A Emax, percentage of the maximum response to 5-HT): 71.6 ± 0.9% | Ki [3]: > 10000 nM | Ki [4]: 0.126 nM | max counts ([5]; SC): 11.4 | ED50 ([5]; Mus musculus, sc, read-out: ED50 mg/kg (95% CI), mouse head twitch): 4.34 mg/kg | activity in the HTR assay (active / inactive) ([5]; SC, doses up to 30 mg/kg): active | magnitude of peak effect × vehicle ([5]; SC, mouse head twitch): 5.7 × vehicle | maximally effective dose ([5]; SC, mouse head twitch): 30 mg/kg | Ki ([6]; 5-HT1B affinity): 3230 nM | Ki ([7]; 5-HT7 affinity): 583 nM | EC50 ([8]; r5-HT2A EC50, Ca2+ mobilization): 27 nM | Emax ([8]; read-out: r5-HT2A Emax, percentage of the maximum response to 5-HT): 51.7 ± 0.9% | Ki ([9]; 5-HT1A affinity): 925 nM | Ki [10]: 1.55 nM | Emax ([11]; HEK293, read-out: h5HT2C Emax): 41 ± 6% | EC50 ([11]; h5HT2C EC50, Ca2+ mobilization): 33.8 nM | Ki [12]: 439 nM | Ki [13]: 4.17 nM | Ki [14]: 1710 nM | Ki [15]: 0.269 nM | EC50 ([16]; r5-HT2C EC50, Ca2+ mobilization): 133 nM | Emax ([16]; read-out: r5-HT2C Emax): 91 ± 3% | Ki ([17]; 5-ht5a affinity): 57 nM | Emax ([18]; HEK293, read-out: h5-HT2B Emax): ≤ 15% | EC50 ([18]; h5-HT2B EC50, Ca2+ mobilization): 38 nM | Ki ([19]; 5-HT6 affinity): 67 nM
